Source: US12162888B2, “Carboxamides as ubiquitin-specific protease inhibitors” (Valo Early Discovery, Inc., priority 2018, dated 2024)

The molecules below were run against T1, USP25 (USP25-His6, Boston Biochem E-546) (Homo sapiens, UniProt Q9UHP3) (assay: Ubiquitin-Rhodamine 110 Assay for USP25 Activity, Example A-3). Conditions: Ubiquitin-Rhodamine 110 assay, Example A-3; read-out: USP25 A-3 IC50 range.
T1 construct: His6 (C); purchased Boston Biochem E-546
T1 sequence (Q9UHP3 1-1055): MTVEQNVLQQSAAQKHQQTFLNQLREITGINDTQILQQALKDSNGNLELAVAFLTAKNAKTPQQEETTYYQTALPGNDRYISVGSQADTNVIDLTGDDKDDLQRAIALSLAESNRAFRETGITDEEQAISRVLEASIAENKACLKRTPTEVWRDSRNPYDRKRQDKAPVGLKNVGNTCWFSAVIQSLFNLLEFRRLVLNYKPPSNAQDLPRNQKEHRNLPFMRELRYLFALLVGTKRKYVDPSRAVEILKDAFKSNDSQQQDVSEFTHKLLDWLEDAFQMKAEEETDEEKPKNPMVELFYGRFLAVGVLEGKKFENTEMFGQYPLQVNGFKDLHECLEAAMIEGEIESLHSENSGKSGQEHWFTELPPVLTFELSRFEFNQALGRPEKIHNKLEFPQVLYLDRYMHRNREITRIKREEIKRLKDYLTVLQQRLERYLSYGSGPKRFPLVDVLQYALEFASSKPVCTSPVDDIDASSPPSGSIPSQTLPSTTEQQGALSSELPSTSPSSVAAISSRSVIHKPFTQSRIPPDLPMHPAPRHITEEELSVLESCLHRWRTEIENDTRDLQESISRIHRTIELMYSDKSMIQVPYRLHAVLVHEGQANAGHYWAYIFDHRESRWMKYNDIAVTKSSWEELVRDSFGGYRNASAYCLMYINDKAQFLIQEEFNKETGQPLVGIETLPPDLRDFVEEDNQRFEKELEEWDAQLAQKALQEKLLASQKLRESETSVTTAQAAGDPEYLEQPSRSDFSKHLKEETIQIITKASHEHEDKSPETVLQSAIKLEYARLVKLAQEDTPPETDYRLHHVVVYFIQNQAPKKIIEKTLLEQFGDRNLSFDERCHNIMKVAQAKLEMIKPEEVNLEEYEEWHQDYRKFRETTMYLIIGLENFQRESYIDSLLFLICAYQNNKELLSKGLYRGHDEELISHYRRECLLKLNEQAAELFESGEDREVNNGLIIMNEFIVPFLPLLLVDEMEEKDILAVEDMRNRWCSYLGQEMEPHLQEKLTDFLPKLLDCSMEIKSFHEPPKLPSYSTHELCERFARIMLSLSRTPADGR
Type: biochemical
Outline: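 USP25-His6 ([…] final as stated) preincubated 30 min with compound (10-point, 25 μM to 1.3 nM), then Ub-Rh110 at 25 nM (<<Km) added in pH 8.0 Tris buffer with BME, BGG and Triton X-100. Reaction stopped after 45 min at room temperature with 10 mM citric acid; fluorescence read at 485/535 nm.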

SMILES	IC50 [nM]
Cc1ccc2c(N)c(C(=O)N[C@@H]3CCc4c(C#N)c(N5CCNCC5)cc(F)c4C3)sc2n1 (single isomer, unassigned) [Example 14-9]	> 2000
Cc1ccc2c(N)c(C(=O)N[C@H]3CCc4c(C#N)c(N5CCNCC5)cc(F)c4C3)sc2n1 (single isomer, unassigned) [Example 14-10]	200 to 2000
Cc1cnc2c(N)c(C(=O)N[C@@H]3CCc4c(C#N)c(N5CCNCC5)cc(F)c4C3)sc2n1 (single isomer, unassigned) [Example 14-11]	200 to 2000
Cc1cnc2c(N)c(C(=O)N[C@H]3CCc4c(C#N)c(N5CCNCC5)cc(F)c4C3)sc2n1 (single isomer, unassigned) [Example 14-12]	> 2000
Cc1nc2sc(C(=O)N[C@@H]3CCc4c(C#N)c(N5CCNCC5)cc(F)c4C3)c(N)c2s1 (single isomer, unassigned) [Example 14-13]	> 2000
Cc1nc2sc(C(=O)N[C@H]3CCc4c(C#N)c(N5CCNCC5)cc(F)c4C3)c(N)c2s1 (single isomer, unassigned) [Example 14-14]	200 to 2000
Cc1ccc2c(N)c(C(=O)N[C@H]3CCc4c(C#N)c(N5CC6CNCC(C5)O6)cc(F)c4C3)sc2n1 (single isomer, unassigned) [Example 14-15]	1 to 50
Cc1ccc2c(N)c(C(=O)N[C@@H]3CCc4c(C#N)c(N5CC6CNCC(C5)O6)cc(F)c4C3)sc2n1 (single isomer, unassigned) [Example 14-16]	200 to 2000
Cc1ccc2c(N)c(C(=O)N[C@H]3CCc4c(C#N)c(N5CC6CCC(C5)N6)cc(F)c4C3)sc2n1 (single isomer, unassigned) [Example 14-17]	1 to 50
Cc1ccc2c(N)c(C(=O)N[C@@H]3CCc4c(C#N)c(N5CC6CCC(C5)N6)cc(F)c4C3)sc2n1 (single isomer, unassigned) [Example 14-18]	> 2000
Cc1cnc2c(N)c(C(=O)N[C@H]3CCc4c(C#N)c(N5CC6CCC(C5)N6)cc(F)c4C3)sc2n1 (single isomer, unassigned) [Example 14-19]	50 to 200
Cc1cnc2c(N)c(C(=O)N[C@@H]3CCc4c(C#N)c(N5CC6CCC(C5)N6)cc(F)c4C3)sc2n1 (single isomer, unassigned) [Example 14-20]	> 2000
Cc1nc2sc(C(=O)N[C@H]3CCc4c(C#N)c(N5CC6CCC(C5)N6)cc(F)c4C3)c(N)c2s1 (single isomer, unassigned) [Example 14-21]	50 to 200
CO[C@H]1CN(c2cc(F)c3c(c2C#N)CC[C@H](NC(=O)c2sc4nc(C)ccc4c2N)C3)C[C@@H]1N (single isomer, unassigned) [Example 14-23]	200 to 2000
CO[C@H]1CN(c2cc(F)c3c(c2C#N)CC[C@@H](NC(=O)c2sc4nc(C)ccc4c2N)C3)C[C@@H]1N (single isomer, unassigned) [Example 14-24]	> 2000
Cc1cnc2c(N)c(C(=O)N[C@@H]3CCc4c(ccc(N5CCNCC5)c4F)C3)sc2n1 (single isomer, unassigned) [Example 21-9]	200 to 2000
Cc1cnc2c(N)c(C(=O)N[C@H]3CCc4c(ccc(N5CCNCC5)c4F)C3)sc2n1 (single isomer, unassigned) [Example 21-10]	> 2000
Cc1cnc2c(N)c(C(=O)N[C@@H]3CCc4cc(N5CCNCC5)c(F)cc4C3)sc2n1 (single isomer, unassigned) [Example 21-11]	> 2000
Cc1cnc2c(N)c(C(=O)N[C@H]3CCc4cc(N5CCNCC5)c(F)cc4C3)sc2n1 (single isomer, unassigned) [Example 21-12]	200 to 2000
Cc1ccc2c(N)c(C(=O)N[C@H]3CCc4c(F)c(N5CC6CCC(C5)N6)cc(F)c4C3)sc2n1 (single isomer, unassigned) [Example 22-5]	1 to 50
[2H]C1([2H])c2c(F)cc(N3CCNCC3)cc2OC[C@@H]1NC(=O)c1sc2nc(C)ccc2c1N (single isomer, unassigned) [Example 33-1]	200 to 2000
[2H]C1([2H])c2c(F)cc(N3CCNCC3)cc2OC[C@H]1NC(=O)c1sc2nc(C)ccc2c1N (single isomer, unassigned) [Example 33-2]	> 2000
CCn1ccc2cc(C(=O)N[C@H]3CCc4nc(N5C[C@@H](COC)[C@@H](N)C5)ccc4C3)cnc21 (single isomer, unassigned) [Example 400]	> 2000
CCn1ccc2cc(C(=O)N[C@H]3CCc4nc(N5C[C@H](COC)[C@H](N)C5)ccc4C3)cnc21 (single isomer, unassigned) [Example 401]	> 2000
Cc1ccc2c(N)c(C(=O)N[C@H]3COc4cc(N5C[C@H](CF)[C@H](N)C5)ccc4C3)sc2n1 (single isomer, unassigned) [Example 424]	200 to 2000
Cc1ccc2c(N)c(C(=O)N[C@H]3COc4cc(N5C[C@H](N)[C@@]6(CCOC6)C5)ccc4C3)sc2n1 (single isomer, unassigned) [Example 439]	200 to 2000
Cc1ccc2c(N)c(C(=O)N[C@H]3COc4cc(N5C[C@H]6CC[C@@H]5CN6)ncc4C3)sc2n1 [Example 76, N-((R)-7-((1R,4R)-2,5-diazabicyclo[2.2.2]octan-2-yl)-3,4-dihydro-2H-pyrano[3,2-c]pyridin-3-yl)-3-amino-6-methylthieno[2,3-b]pyridine-2-carboxamide]	50 to 200
CO[C@H]1CN(c2ccc3c(c2)OC[C@H](NC(=O)c2sc4nc(C)cnc4c2N)C3)C[C@@H]1N [Example 117]	200 to 2000
CO[C@H]1CN(c2ccc3c(c2)OC[C@H](NC(=O)c2sc4nc(C)sc4c2N)C3)CC1N (stereo partly drawn) [Example 118, 6-amino-N-[(3R)-7-[(3,4S)-3-amino-4-methoxypyrrolidin-1-yl]-3,4-dihydro-2H-1-benzopyran-3-yl]-2-methylthieno[2,3-d][1,3]thiazole-5-carboxamide]	200 to 2000

Same assay, conditions: biochemical IC50 range, Ubiquitin-Rhodamine 110 assay, Example A-3; read-out: USP25 A-3

SMILES	IC50 [nM]
Cc1ccc2c(N)c(C(=O)N[C@H]3CCc4c(F)c(N5CC6CCC(C5)N6)cc(F)c4C3)sc2n1 (single isomer, unassigned) [Example 603]	1 to 50
COC1CN(c2ccc3c(c2)CC[C@H](NC(=O)c2sc4nc(C)cnc4c2N)C3)CC1N (stereo in doubt) [Example 130, 7-amino-N-[(2S)-6-[(3S,4S)-3-amino-4-methoxypyrrolidin-1-yl]-1,2,3,4-tetrahydronaphthalen-2-yl]-3-methylthieno[2,3-b]pyrazine-6-carboxamide]	200 to 2000
CO[C@H]1CN(c2ccc3c(c2)CC[C@H](NC(=O)c2sc4nc(C)ccc4c2N)C3)C[C@H]1N [Example 144, 3-amino-N-[(2S)-6-[(3R,4S)-3-amino-4-methoxypyrrolidin-1-yl]-1,2,3,4-tetrahydronaphthalen-2-yl]-6-methylthieno[2,3-b]pyridine-2-carboxamide]	200 to 2000
CO[C@@H]1CN(c2ccc3c(c2)OC[C@H](NC(=O)c2sc4nc(C)cnc4c2N)C3)C[C@@H]1N [Example 147, 7-amino-N-[(3R)-7-[(3S,4R)-3-amino-4-methoxypyrrolidin-1-yl]-3,4-dihydro-2H-1-benzopyran-3-yl]-3-methylthieno[2,3-b]pyrazine-6-carboxamide]	200 to 2000
